Laboratory results from patent US20200158737A1, “METHODS OF MEASURING UBIQUITIN-LIKE MODIFICATIONS” (Regents of the University of Minnesota, priority 2018, published 2020).
Residues, ends and D or L forms follow the SMILES beside them. *: point of attachment. Cbz = O=C(OCc1ccccc1)*

Key:
[1] = target: T1, bovine serum albumin (BSA) (Bos taurus, UniProt P02769); experiment: Ninhydrin test with BSA standard to evaluate AcGG-NHS labeling efficiency
T1 construct: purchased VWR
Protocol: To test the amine labeling efficiency of AcGG-NHS, three groups of samples were prepared—Blank: 100 μL of 9 M urea/1×PBS, Control: 0.1 mg BSA (5 μL of 20 mg/mL BSA) and 95 μL of 9 M urea/1×PBS, Test: 0.1 mg BSA (5 μL of 20 mg/mL BSA) and 95 μL of 9 M urea/1×PBS. First, samples in each groups were reduced with a final concentration of 5 mM TCEP and alkylated with a final concentration of 5 mM iodoacetamide at room temperature with shaking in dark for 30 min. Then, samples in the Test group were derivatized with AcGG-NHS following the procedure described below. Each group was followed by a reaction with ⅕ the volume of Ninhydrin reagent solution (0.35 g ninhydrin in 100 mL EtOH) at 85° C. with gentle stirring for 5 min. Absorbance of each sample was measured at 577 nm using NanoDrop spectrophotometer (Fisher).
Ten μg of proteins were dried in a Speed-Vac and resuspended in 10 μL of 9 M urea/PBS with pH adjusted to ˜8.5. AcGG-NHS stock solution was prepared by dissolving AcGG-NHS in 50% ACN/50% H2O mixture at a concentration of 100 mg/mL. One μL of AcGG-NHS stock solution was added to each sample and the mixture was vortexed for 45 min. The labeling was repeated for another two times. The reaction was quenched with 5% hydroxylamine (pH=6.0, 1.5 M) for 15 min. Each sample was diluted 6× with PBS and proteins were digested with trypsin for overnight at 37° C. […]

[2] = system: ubiquitination sites in histone-enriched fractions of 293T cells; experiment: IBAQ-Ub site-specific stoichiometric analysis of known Ub sites on acid-extracted histones from 293T cells treated with DMSO or MG132; format: cell-based, human
Protocol: 293T cells were treated with 5 μM MG132 or the equal volume of DMSO for 12 hours. Histone extraction was performed as described previously (D. Shechter, et al., Nat Protoc 2007, 2, 1445-1457). Briefly, the cells were harvested by trypsin digestion. The cell pellets were washed with cold PBS and then lysed in 0.5 mL Extraction Buffer (PBS+0.5% Triton X-100 (v/v)) with protease inhibitor cocktail. After centrifuge, the supernatant was discarded and the pellet was washed with Extraction Buffer again to remove residual supernatant solution in pellet. The pellet was re-suspended in 0.4 ml 0.4 N H2SO4 for acid extraction. After overnight incubation at 4° C., the supernatant was extracted and proteins were precipitated with a final concentration of 20% TCA (v/v), followed by cold acetone wash. The protein pellet was air dried and protein concentration was measured by the Bradford assay after solubilizing the pellet with water.
Ten μg of proteins were dried in a Speed-Vac and resuspended in 10 μL of 9 M urea/PBS with pH adjusted to ˜8.5. AcGG-NHS stock solution was prepared by dissolving AcGG-NHS in 50% ACN/50% H2O mixture at a concentration of 100 mg/mL. One μL of AcGG-NHS stock solution was added to each sample and the mixture was vortexed for 45 min. The labeling was repeated for another two times. The reaction was quenched with 5% hydroxylamine (pH=6.0, 1.5 M) for 15 min. Each sample was diluted 6× with PBS and proteins were digested with trypsin for overnight at 37° C. (enzyme-to-substrate ratio of 1:100 (w/w)). When a second digestion was needed, another protease (Glu-C or Asp-N) was added (enzyme to substrate ratio of 1:100 w/w) for overnight digestion at 37° C. Following digestion, peptides were desalted and then resuspended in 10 μL of 9M urea/PBS at a pH ˜8.5. Heavy Ac—NHS stock solution was prepared by dissolving heavy Ac—NHS in ACN at a concentration of 100 mg/mL. One μL of heavy Ac—NHS stock solution was added to each sample for 45-min labeling. The labeling was repeated for two more times and the reaction was quenched with 5% hydroxylamine (pH=6.0, 1.5 M) for 15 min. The peptides were desalted with stage tips (C18) prior to LCMS analysis (J. Rappsilber, et al., Nat Protoc 2007, 2, 1896-1906).
Mass spectrometry data were collected using an Orbitrap Fusion mass spectrometer (Thermo Scientific) with a Top-12 method. Samples were resolubilized in HPLC buffer A (0.1% formic acid in water, v/v) and injected onto a self-packed reversed-phase capillary HPLC column (15 cm×100 μm, ReproSil-Pur Basic C18, 2.5 μm, Dr. Maisch GmbH). Peptides were separated by a Proxeon Easy nLC 1000 Nano-UPLC system (Thermo Scientific) at a flow rate of 200 nL/min with a 56 min gradient of 7-32% HPLC buffer B (0.1% formic acid in acetonitrile, v/v). The Orbitrap Fusion mass spectrometer (Thermo Scientific) was operated in a positive polarity mode with ion transfer tube temp of 275° C. Precursor ions were acquired in Orbitrap with a resolution 60,000 at 200 m/z and a mass range of 380-1800 m/z. Dynamic exclusion was enabled with an exclusion duration of 15 s and a mass tolerance of ±25 ppm. Fragment ions were acquired in the linear ion trap with an isolation window of 1.6 m/z and high energy collisional dissociation (HCD) of 35%.
Mass spectra were processed with MaxQuant software (version 1.5.3.12) (J. Cox, M. Mann, Nat Biotechnol 2008, 26, 1367-1372). […]

[3] = sites quantified in both DMSO and MG132 treated samples, histone-enriched chromatin fractions of 293T cells

T1 sequence (P02769 25-607): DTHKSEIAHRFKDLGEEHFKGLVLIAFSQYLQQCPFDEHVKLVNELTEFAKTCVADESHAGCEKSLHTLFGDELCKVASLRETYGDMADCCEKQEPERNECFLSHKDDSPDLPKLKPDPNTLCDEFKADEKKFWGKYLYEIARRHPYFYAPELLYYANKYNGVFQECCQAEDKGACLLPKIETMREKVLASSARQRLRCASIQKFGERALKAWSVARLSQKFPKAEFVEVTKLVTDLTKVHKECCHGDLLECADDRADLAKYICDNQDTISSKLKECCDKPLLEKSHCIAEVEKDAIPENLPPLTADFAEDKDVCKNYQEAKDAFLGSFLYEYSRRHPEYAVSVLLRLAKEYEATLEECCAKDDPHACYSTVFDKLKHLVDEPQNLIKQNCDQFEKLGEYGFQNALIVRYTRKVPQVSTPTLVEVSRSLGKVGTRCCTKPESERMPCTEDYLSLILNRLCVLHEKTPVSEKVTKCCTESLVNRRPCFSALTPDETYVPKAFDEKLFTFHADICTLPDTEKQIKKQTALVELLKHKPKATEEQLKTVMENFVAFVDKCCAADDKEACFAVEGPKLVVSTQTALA

Ninhydrin reactivity on BSA after labeling ([1]; BSA after AcGG-NHS labeling, FIG. 9B-9C) | reactivity to derivatize amino groups ([1]; Ninhydrin test, BSA standard, absorbance at 577 nm) | SMILES | abundance of histone H2B K117/K120 ubiquitination (Ub stoichiometry) ([2]; 293T cells, 5 μM MG132 12 hours, acid-extracted histones, stoichiometry 0.91% without MG132) | K48 polyubiquitin linkage stoichiometry on extracted histones ([2]; 293T cells, 5 μM MG132 12 hours, DMSO control 0.85%) [%] | increase of K48 ubiquitination stoichiometry versus DMSO control ([2]; 293T cells, MG132 treatment, extracted histones) | sites with decreased ubiquitination upon treatment [2, 3] | sites with increased Ub abundance upon treatment [2, 3]
complete loss of Ninhydrin reactivity | high reactivity | CC(=O)NCC(=O)NCC(=O)ON1C(=O)CCC1=O [AcGG-NHS, Acetyl glycylglycine-N-hydroxysuccinamide] (HELM PEPTIDE1{[ac].G.G.[O=C1CCC(=O)N1O[*:1]]}$$$$V2.0) | – | – | – | – | –
– | – | CC(C)C[C@@H](C=O)NC(=O)[C@H](CC(C)C)NC(=O)[C@H](CC(C)C)NC(=O)OCc1ccccc1 [MG132] (Cbz-Leu-Leu-Leu-aldehyde) | below the detection limit | 2.93 | more than tripled | 27 % of the sites | 72 % of the sites
